Data from paper PMC2365101, “Anti-Inflammatory Activity of (Polyphenolic)-Sulfonates and Their Sodium Salts in Rodents” (Metal-Based Drugs, 1998).

What was measured:
[1] = test system: CF1 male mice, LPS Salmonella abortus equi induced death; assay: Protection against septic shock (LPS induced endotoxic shock); format: in vivo; details: for Percent Survival at 52 hr: LPS 10 mg/kg, CF1 male mice, N=6
Text: Few reports in the literature indicate interaction at these receptor sites other than by peptides or antibodies. […] Blocking these receptors is desirable because the entire inflammation cascade of events is triggered by the early release of TNFa and IL-1. […] Radioisotopes were obtained from New England Nuclear [Dupont, Boston, MA] and substrates and co- factors were obtained from Sigma Chemical Co. [St. Louis, MO]. […] Cell lines were obtained from American Type Culture Collection [Rockville, MD]. In Vivo Tests Anti-inflammatory screen in mice: Male CF male mice weighing 28-32g obtained from Jackson Lab. [Bar Harbor, […]] were used to screen agents at 8 or 16 mg/kg intraperitoneal [I.P.] x 2 administered 3 hr and 30 min prior to administering the irritant, according to Winter's protocol. Evaluation of the induced edema was made by injecting 2% carrageenan in 0.9% saline into the plantar region of the foot. The opposite foot injected with 0.9% isotonic saline was used as a base line. […] Salmonella abortus equi [Lot # 69F4003] […] Drugs from 2 to 16 mg/kg, I.P. were administered 2 hr prior and 2 hr post-injection of the LPS and then subsequently for every 24 hr for the length ofthe animals' lives. Deaths were recorded every 12 hr and continued for 96 hr. […] In vitro TNFa andIL-1 Measurements and Cellular Regulation IC-21 mouse macrophages were maintained in RPMI-1640 + 10% FCS + P/S. After the cells had grown to confluency, E. coli LPS at 10 Ixg/ml was added to the medium. Agents were incubated at 12.5 to 100 µM final concentration for 18 hr. The medium (100 btl) was collected for TNFCt determinations. Interleukin-1 [IL-1] release was determined using P388D1 cells which were maintained in RPMI-1640 + 10% FCS + P/S. The L929 bioassay was used to quantitate the TNF and the IL-1 levels. The L929 mouse fibroblasts were grown in DMEM + 10% FCS + P/S to confluency in 96 well plates and incubated with 100 tl ofmedium from […] or P388D cells after 18 hr. The cells were stained with 0.2% crystal violet in 20% MeOH and read at 580 nm using a Molecular Devices scanner (SOFT-max program). High Affinity Binding to Receptors on L929-106 Cells Two laCi of 125I-TNFct (human recombinant, 30 mCi/tg New England Nuclear) or 125I-IL-1 (70-120[.t Ci/lxg,New England Nuclear) was added to confluency L929 cells for 90 min or 5 hr, respectively with 25, 50 and 100 tM of the test compounds 12]. The cells were washed repeatedly with isotonic saline, pH.7.2 and aliquots counted. Prostaglandin cylcooxygenase activity Mouse J774AI macrophages maintained in Dulbecco's modified Eagle's medium + 15% FCS + P/S. Cells (5 x 106) were incubated with agents (5 to 100 ].tM final concentration) and 3H-arachidonic acid (100 Ci/mol) for 60 min at 37C in a CO2 incubator. The reaction was terminated with 2N HCI, the mixture extracted 2 X with ether, and the organic layer evaporated.

[2] = test system: IL-8 high affinity receptor on chinese hamster ovarian carcinoma K-1 cells; assay: 125I-IL-8 high affinity binding to chinese hamster ovarian carcinoma K-1 cells; details: for 125I-IL-8 binding, Percent of Control: N=6
[3] = test system: RPMI 1788 leukocytes adhesion to L929 fibroblasts; assay: Adhesion of human leukocytes RPMI-1788 to confluent L929 fibroblasts; format: cell-based; details: for Adhesion, Percent of Control: N=6
[4] = molecular target: T1, IL-2 high affinity receptor on HUT78 T lymphoma cell membrane (Homo sapiens, UniProt P01589+P14784); assay: 125I-IL-2 high affinity binding to HuT78 T lymphoma cells; details: for 125I-IL-2 binding, Percent of Control: N=6
T1 construct: host or cells: HuT78 T lymphoma cells
T1 sequence (P01589 22-272): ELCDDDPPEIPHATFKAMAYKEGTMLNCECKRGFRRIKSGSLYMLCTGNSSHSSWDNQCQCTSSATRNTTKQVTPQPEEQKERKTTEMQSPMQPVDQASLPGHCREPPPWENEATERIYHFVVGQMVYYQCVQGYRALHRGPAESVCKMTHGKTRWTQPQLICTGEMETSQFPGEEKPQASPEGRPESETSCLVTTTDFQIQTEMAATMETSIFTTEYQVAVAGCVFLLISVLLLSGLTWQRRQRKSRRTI
T1 sequence (P14784 27-551): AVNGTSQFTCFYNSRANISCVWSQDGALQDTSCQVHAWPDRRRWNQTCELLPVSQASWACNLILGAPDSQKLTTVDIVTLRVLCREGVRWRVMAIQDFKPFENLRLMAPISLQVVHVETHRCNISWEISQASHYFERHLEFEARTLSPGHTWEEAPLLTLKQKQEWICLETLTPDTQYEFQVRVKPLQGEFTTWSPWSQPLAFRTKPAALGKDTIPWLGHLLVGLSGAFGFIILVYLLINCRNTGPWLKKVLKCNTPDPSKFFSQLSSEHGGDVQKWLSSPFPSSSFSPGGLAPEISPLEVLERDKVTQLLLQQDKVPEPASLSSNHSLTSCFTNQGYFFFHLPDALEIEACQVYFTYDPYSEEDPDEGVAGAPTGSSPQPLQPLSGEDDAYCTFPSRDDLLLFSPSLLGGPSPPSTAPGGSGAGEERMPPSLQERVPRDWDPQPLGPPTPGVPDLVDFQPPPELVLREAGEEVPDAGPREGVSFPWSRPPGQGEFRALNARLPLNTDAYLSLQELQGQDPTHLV

[5] = test system: J774 A1 mouse macrophages adhesion to L929 fibroblasts; assay: Adhesion of J-774 A1 mouse macrophages to confluent L929 fibroblasts; format: cell-based; details: N=6
[6] = molecular target: J774-A1 macrophage elastase; assay: Elastase activity in J774-A1 macrophages; format: biochemical, mouse

CC(=O)Oc1c2cc(S(=O)(=O)[O-])cc1Cc1cc(S(=O)(=O)[O-])cc(c1OC(C)=O)Cc1cc(S(=O)(=O)[O-])cc(c1OC(C)=O)Cc1cc(S(=O)(=O)[O-])cc(c1OC(C)=O)Cc1cc(S(=O)(=O)[O-])cc(c1OC(C)=O)Cc1cc(S(=O)(=O)[O-])cc(c1OC(C)=O)Cc1cc(S(=O)(=O)[O-])cc(c1OC(C)=O)Cc1cc(S(=O)(=O)[O-])cc(c1OC(C)=O)C2.[Na+].[Na+].[Na+].[Na+].[Na+].[Na+].[Na+].[Na+] [Compound 8]
Percent Survival at 52 hr ([1]; 2 mg/kg I.P.): 67% | Percent Survival at 52 hr ([1]; 4 mg/Kg I.P.): 67% | Percent Survival at 52 hr ([1]; 8 mg/Kg I.P.): 67% | Percent Survival at 52 hr ([1]; 16 mg/Kg I.P.): 83% | protection from LPS induced death ([1]; 16 mg/kg): 83% | 125I-IL-8 binding, Percent of Control ([2]; 50 μM, 5 Hours): 79 + 4% of Control | 125I-IL-8 binding, Percent of Control ([2]; 50 μM, 24 Hours): 58 + 7% of Control | reduction of IL-8 high affinity binding ([2]; 50 μM, 5 hr): 21-23% | 125I-IL-8 binding, Percent of Control ([2]; 100 μM, 24 Hours): 51 + 6% of Control | reduction of IL-8 high affinity binding ([2]; 24 hr): greater than 40% | Adhesion, Percent of Control ([3]; 5 μM, 60 min): 49 + 7% of Control | Adhesion, Percent of Control ([3]; 5 μM, 90 min): 108+6% of Control | Adhesion, Percent of Control ([3]; 12.5 μM, 60 min): 40+ 5% of Control | Adhesion, Percent of Control ([3]; 12.5 μM, 90 min): 65 +6% of Control | Adhesion, Percent of Control ([3]; 25 μM, 2 Hours): 108+4% of Control | Adhesion, Percent of Control ([3]; 25 μM, 60 min): 41 +5% of Control | Adhesion, Percent of Control ([3]; 25 μM, 90 min): 63+3% of Control | Adhesion, Percent of Control ([3]; 50 μM, 2 Hours): 116+6% of Control | Adhesion, Percent of Control ([3]; 50 μM, 60 min): 55+4% of Control | reducing the adhesion of human leukocytes ([3]; 5 to 50 μM, at 2 and 5 hr): not effective | reducing significantly the adhesion of human leukocytes ([3]; 5 to 50 μM, at 60 and 90 min): effective | 125I-IL-2 binding, Percent of Control ([4]; 5 μM, 2 Hours): 138 + 5% of Control | 125I-IL-2 binding, Percent of Control ([4]; 5 μM, 5 Hours): 85 + 5% of Control | 125I-IL-2 binding, Percent of Control ([4]; 12.5 μM, 2 Hours): 215 + 7% of Control | 125I-IL-2 binding, Percent of Control ([4]; 12.5 μM, 5 Hours): 78 + 4% of Control | 125I-IL-2 binding, Percent of Control ([4]; 25 μM, 2 Hours): 88 + 6% of Control | 125I-IL-2 binding, Percent of Control ([4]; 25 μM, 5 Hours): 59 + 5% of Control | 125I-IL-2 binding, Percent of Control ([4]; 50 μM, 2 Hours): 38 + 4% of Control | 125I-IL-2 binding, Percent of Control ([4]; 50 μM, 5 Hours): 55 + 6% of Control | reduction of IL-2 binding ([4]; 50 μM, 2 hr): 62% | reduction of IL-2 high affinity binding ([4]; 50 μM, 5 hr): 45% | Adhesion, Percent of Control ([5]; 5 μM, 2 Hours): 73 + 5% of Control | Adhesion, Percent of Control ([5]; 5 μM, 5 Hours): 107 + 5% of Control | Adhesion, Percent of Control ([5]; 5 μM, 90 min): 136 + 5% of Control | Adhesion, Percent of Control ([5]; 12.5 μM, 2 Hours): 61 + 6% of Control | Adhesion, Percent of Control ([5]; 12.5 μM, 5 Hours): 106 + 6% of Control | Adhesion, Percent of Control ([5]; 12.5 μM, 90 min): 135 + 7% of Control | Adhesion, Percent of Control ([5]; 25 μM, 2 Hours): 91 + 5% of Control | Adhesion, Percent of Control ([5]; 25 μM, 5 Hours): 125 + 7% of Control | Adhesion, Percent of Control ([5]; 25 μM, 90 min): 183 + 7% of Control | Adhesion, Percent of Control ([5]; 50 μM, 2 Hours): 92 + 6% of Control | Adhesion, Percent of Control ([5]; 50 μM, 5 Hours): 131 + 7% of Control | Adhesion, Percent of Control ([5]; 50 μM, 90 min): 94 + 6% of Control | IC50 ([6]; 60 min): 10 to 30 µM | IC50 ([6]; 60 min, listed as #8): 24.5 µM | IC50 ([6]; 120 min): 350 µM
